One data set addresses T1, human plasma BChE (Homo sapiens, UniProt P06276).
T1 construct: human plasma BChE; from tissue; host or cells: human plasma
Put plainly: BChE inhibition, IC(50) by logit plot. The format is biochemical. The settings on record: BChE compared with AChE. As to the method: The IC (50) values can be determined for such inhibitors using methods well known in the art. In such assay the pharmacological activity of each compound, as an IC (50), defined as the concentration, in nanomoles, required to inhibit 50% of the enzyme activity of AChE and BChE, is determined separately. For determination of IC (50) values, the enzyme activity of each concentration was expressed as a percent of that determined in the absence of each compound. This then was transformed into a logit format, where logit=In (% activity/[100-% activity]), and was plotted as a function of the log concentration of the compound. IC (50) values (i.e., logit=In (50/[100−5O]=0) were determined only from correlation coefficients (r^2) of less than −0.985 and when more than 50% inhibition was achieved from duplicate samples. The selectivity ratio is then determined by comparing the IC (50) values obtained for each compound with AChE to that for BChE.

For data set [1], the system named is βAPP secretion, glioblastoma, HeLa, neuroblastoma and PCI2 cell lines. The settings on record: neuronal cells treated with cholinesterase inhibitors; cited from earlier work.
Data set [2] concerns aged Fischer-344 (F344) rats. Nature of the data set: One-way active avoidance pretraining in straight runway. In kind it is in vivo, rat. The settings on record: for mean (s.e.m.) avoidances: pretraining, i.p. daily. The source says:
(§1) Male F344 rats 21-22 months old were obtained from Harlan-Sprague-Dawley under contract from the National Institute on Aging. They were maintained two per cage in a vivarium at the Gerontology Research Center under specific pathogen free conditions as characterized previously.
(§2) As previously described, the Stone maze is constructed of translucent plastic with a grid floor wired for scrambled foot shocks and is surrounded by gray walls to reduce availability of extra-maze cues. The only other apparatus was a straight runway (2 m) used for pretraining. Similar to the maze, the runway was also constructed of translucent plastic, and contained a grid floor wired for scrambled foot shocks, and was surrounded by gray walls.
(§3) […] On days 3-5 injections were made 30 min prior to behavioral testing.
Beginning on day 2 rats were provided training in one-way active avoidance in the straight runway. On each trial, the rat had to locomote from the start box to the goal box within 10 s to avoid the onset of foot shock (0.8 mA). Rats received 10 trials on day 2 and 10 trials on day 3. Training was terminated when the rat met a performance criteria of eight avoidances within 10 consecutive trials within a maximum of 30 trials. Only rats meeting this criterion were tested in the Stone maze on the next day.

Data set [3] relates to aged Fischer-344 (F344) rats. Nature of the data set: 14-unit T-maze (Stone maze) learning. The format is in vivo, rat.
Text: In the present study we assessed the effects of chronic cymserine treatment (5 days) on performance of aged Fischer-344 (F344) rats (21-22 months old) in a 14-unint T-maze, referre to as the Stone maze.
as §1, §2, §3
Rats received training in the Stone maze scheduled as a 4-trial session during the morning and afternoon on days 4 and 5. During each trial, the rat had to locomote from a start box to a goal box through five maze segments each separated by guiiltine doors. The reinforcement contingency required the rat to negotiate each segment within 10 s to avoid the onset of mild foot shock (0.8 mA), which was terminated when the animal moved through the door into the next segment. After entry into succeeding segments, the door from the preceding segment was closed to prevent backtracking. Recorded as deviations from the correct pathway, errors were the primary dependent variable and were counted automatically by a series of infrared sensors connected to a microprocessor. Run time from the start box to the goal was also recorded automatically. The frequency and duration of foot shock were recorded on a mechanically operated clock.

The subject of data set [4] is βAPP in human neuroblastoma cell lines. Nature of the data set: Cellular and secreted βAPP levels by immunoblot. In kind it is cell-based. On the procedure:
In further studies, the actions of selective AChE (Compounds 2, 3, (phenserine and tolserine) Table 1) and BChE (Compound 4 (cymserine), Table 1) inhibitors were assessed against human neuroblastoma cell lines. Both secreted levels, measured in the conditioned medium, and cellular levels of βAPP, measured in the cell lysates, were assessed and compared to levels achieved in untreated cells.
A methodology that can be employed to determine the ability of a selected compound to regulate cellular and secreted βAPP levels is as follows:
1 to 1.5×10^7 of each cell type (neuronal and non-neuronal) are cultured in their respective medium. Before adding drug, the cells are fed with media containing only 0.5% of FBS (low serum). The cells are then incubated either in the absence or presence of the test compound. Following incubation periods from 12 to 48 hours, the conditioned medium from each plate is collected and both it and the cells are centrifuged at 800 g. for 10 minutes. The conditioned medium is collected and the cells lysed in buffer containing 50 mM Tris-Cl (pH 8.0), 150 mM NaCl, 5 mM EDTA, 2 mM PMSF, 0.5% sodium deoxycholate, 1 ug/ml each of aprotonin, leupeptin and TLCK, and 0.1 ug/ml of pepstatin A. The cells are centrifuged for 10 min at 11,000 g at 4° C. Proteins of the supernatant solution (cell lysate) are measured by the Bradford dye-binding procedure (Bradford, Anal. Biochem. 72: 248-254, 1976).
For polyacrylamide gel electrophoresis and immunoblotting: in control experiments, an equivalent concentration of ethanol was used as a vehicle which is less than 1% in media. Compound dosages of from about 0.15 mM to 0.5 mM may be used. 100 uL of conditioned media or 30 ug of protein from the total cell lysate is separated on a 12% polyacrylamide gel containing SDS (SDS-PAGE). Immunoblot analysis was performed using the avidinbiotyinylated complex detection kit of Vector Laboratories as described by Lahiri, et al., J. Neurosci: Res. 12:777-787 (1994). The antisera employed is from the mAb22C11 clone (Boehringer Mannheim) which recognizes all mature forms of βAPP found in cell membranes as well as the carboxyltruncated soluble forms secreted into the conditioned media and the APP-like protein. Additionally, the mAb6E10 is employed which recognizes residues 1 to 28 of Aβ. […] Biotinylated secondary antibodies, horse anti-mouse and goat anti-rabbit (Boehringer Mannheim, and Vector Labs) are also used.
On the technique in general: A western blot detects proteins with antibodies after separation by electrophoresis.

The test system of the next data set is secreted βAPP in CSF. Nature of the data set: CSF βAPP in rats with or without forebrain cholinergic (nbM) lesions. In kind it is in vivo, rat. The source says: Cymserine, a representative of selective BChE inhibitors, additionally alters βAPP synthesis/processing in vivo.
A methodology that can be employed to determine the ability of a selected compound to regulate secreted βAPP levels in vivo is as follows:
For forebrain cholinergic system lesions, rats receive a unilateral subcortical lesion of the nucleus basalis of Meynert (nbM) using N-methyl-D-aspartate (NMDA) as an excitotoxin. In undertaking this, rats are anesthetized and placed in a stereotaxic apparatus with the upper incisor bar set level with the intra-aural line. A 33 gauge infusion cannula is lowered into two sites within the nbM on one side of the brain (AP bregma, ML −2.8 mm, DV −8.0 mm re: skull and AP bregma −0.8 mm, ML −3.0 mm, DV −7.8 mm, respectively). One microliter of a solution of 50 mM NMDA in PBS buffer (physiological pH) is slowly infused into each site. Controls for the lesion are vehicle alone and the contralateral side of NMDA treated animals.
Collection of CSF for analysis of βAPP levels is undertaken by withdrawal of an aliquot from the cistern magna of rats immediately following their death. Quantitation of βAPP is undertaken by immunoblot analysis utilizing mAb22C11.

A short description of data set [5]: Brain and plasma time-dependent kinetics by HPLC. The format is in vivo. Particulars: rat. On the procedure: Determination of the brain and plasma time-dependent kinetics of cymserine in the rats is undertaken by administering compound into the saphenous vein of anesthetized animals. Animals are killed by excess anesthetic at specific times and blood and brain samples are immediately taken. The blood is centrifuged (10,000 g, 2 min), plasma is collected and, together with the sample of brain, is stored at −80° C. Quantitation of concentrations of cymserine is undertaken by high performance liquid chromatography.

Setting [6] is: 1.0 mg kg, blocks 3 and 4 vs controls.

Entries after “also recorded” stand apart in the source; their conditions may differ.

T1 sequence (P06276 29-602): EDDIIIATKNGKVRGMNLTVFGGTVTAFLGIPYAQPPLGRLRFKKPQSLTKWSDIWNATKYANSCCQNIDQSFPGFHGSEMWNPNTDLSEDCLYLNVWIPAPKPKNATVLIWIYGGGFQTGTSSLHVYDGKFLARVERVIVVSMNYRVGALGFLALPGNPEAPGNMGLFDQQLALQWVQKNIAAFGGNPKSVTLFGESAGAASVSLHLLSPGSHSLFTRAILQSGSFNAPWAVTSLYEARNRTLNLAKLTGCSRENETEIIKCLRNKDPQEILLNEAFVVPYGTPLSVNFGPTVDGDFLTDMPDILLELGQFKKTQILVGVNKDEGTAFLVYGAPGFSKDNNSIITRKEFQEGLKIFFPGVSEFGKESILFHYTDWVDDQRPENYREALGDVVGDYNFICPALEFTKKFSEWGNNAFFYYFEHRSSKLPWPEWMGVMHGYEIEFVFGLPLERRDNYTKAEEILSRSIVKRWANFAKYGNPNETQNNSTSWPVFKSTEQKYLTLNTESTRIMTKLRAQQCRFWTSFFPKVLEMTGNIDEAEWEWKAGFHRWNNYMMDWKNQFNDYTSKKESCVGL

As to `CNC(=O)Oc1ccc2c(c1)[C@]1(C)CCS[C@@H]1N2C` [Compound 22, thiaphysovenine], on human plasma BChE, the “selectivity of inhibitory action for BChE versus AChE” value (from here on “selectivity of inhibitory action”) is on record as “selectivity of inhibitory action for BChE”.

For the compound `Cc1ccccc1NC(=O)Oc1ccc2c(c1)[C@]1(C)CCN(C)[C@@H]1N2C` [Compound 3, tolserine, reference compound], at human plasma BChE, the “selectivity of inhibitory action” value is “no selectivity for BChE”.

`Nc1c2c(nc3ccccc13)CCCC2` [tacrine]: the “secretion of βAPP” value in data set [1] is listed as “reducing it”.

In the case of `CC(C)c1ccc(NC(=O)Oc2ccc3c(c2)[C@]2(C)CCN(C)[C@@H]2N3C)cc1` [Compound 4, cymserine], the “selectivity of inhibitory action” value at human plasma BChE is listed as “selectivity for BChE inhibition”. In addition, the “effects of drug treatment during pretraining” value in data set [2] (all dose groups vs control) is recorded as “No effects”. For the same compound, the “mean (s.e.m.) avoidances” value is reported as 65% (2.8) in data set [2] (1 mg kg cymserine group), 63% (3.8) in data set [2] (2 mg kg cymserine group) and 61% (3.9) in data set [2] (3 mg kg cymserine group). Besides, the “errors across all trials” value in data set [3] (1 mg kg group vs controls) and in data set [3] (2 mg kg group vs controls) was “significantly improved performance” throughout. Also, the shock duration result in data set [3] (1.0 mg kg, block 2) is recorded as “significantly reduced”; in data set [3] (setting [6]) it was “significantly reduced”; in data set [3] (2.0 mg kg, block 4), “significantly reduced”; in data set [3] (3.0 mg kg, block 4) it was “significantly different from controls”. For the same compound, the run time entry in data set [3] (setting [6]) was “significantly reduced”; in data set [3] (2.0 mg kg, block 4) it was “significantly reduced”. Moreover, the shock frequency entry in data set [3] (setting [6]) is “significantly reduced”; in data set [3] (2.0 mg kg, block 4), “significantly reduced”. In addition, the “errors in the Stone maze” value in data set [3] (3 mg kg dose) was “least effective”. The motoric side effects result in data set [3] (3 mg kg dose, a few rats) is reported as “fine tremor”. Also, the “number of errors made in the Stone maze” value in data set [3] (all doses, compared with control condition) was “significantly reduced”. In data set [3] (chronic treatment (5 days)), the “learning / cognitive performance of aged rats in the Stone maze” value is listed as “improves cognitive performance; also recorded: markedly improved”. Besides, the side effects entry in data set [3] (doses other than 3 mg kg) is on record as “no side effects were noted”. In data set [4] (cell lysates, compared to untreated cells), the “cellular levels of βAPP” value was “dramatically reduced”. In addition, the “secreted βAPP levels” value in data set [4] (conditioned medium, compared to untreated cells) is reported as “reduced”. Moreover, the “βAPP levels assessed by mAb22C11 and 6E10” value in data set [4] (immunoblot, FIG. 2) is listed as “dramatically reduce”. The “effect on other secretory proteins, such as HSP-70” value in data set [4] (immunoblot, selectivity control) is listed as “without affecting”. Further, the “levels of βAPP in CSF” value with secreted βAPP in CSF (animals without cholinergic lesions, cymserine alone versus pure control rats) is on record as “reduced”. In addition, the “elevation of secreted βAPP in CSF” value in the data set with secreted βAPP in CSF (rats with forebrain cholinergic lesions, intraperitoneal twice daily for 7 days) was “blocks the elevation”. The “CSF βAPPγ levels” value with secreted βAPP in CSF (rats, FIG. 3 legend) was “reduces”. The “brain levels relative to plasma levels” value in data set [5] (1 mg/kg by the intravenous route) was about 40 fold. In addition, the “crossing of the blood-brain barrier” value in data set [5] (systemic administration) is given as “readily cross the blood-brain barrier”.

For the compound `CNC(=O)Oc1ccc2c(c1)[C@]1(C)CCN(C)C1N2` (stereo partly drawn) [Compound 34, N^8-norphysostigmine], the “selectivity of inhibitory action” value on human plasma BChE was “potent and selective inhibitors of BChE”.

Regarding `Nc1ccncc1N` [3,4 diaminopyridine], the “secretion of βAPP” value in data set [1] is recorded as “none of the other drugs, all classical anticholinesterases, produced a change”.

As for 3′-methyl-carbamoyl eseroline, the “selectivity of inhibitory action” value at human plasma BChE is given as “does not provide BChE selectivity”.

As for `COP(=O)(OC)C(O)C(Cl)(Cl)Cl` (stereo not drawn) [metrifonate], the “secretion of βAPP” value in data set [1] is on record as “none of the other drugs, all classical anticholinesterases, produced a change”.

As to `CNC(=O)Oc1ccc2c(c1)[C@]1(C)CCO[C@@H]1N2C` [Compound 26, physovenine], the “selectivity of inhibitory action” value on human plasma BChE is given as “selectivity of inhibitory action for BChE”.

For `C=CCN1CCC2(C)c3cc(OC(=O)NC)ccc3N(C)C12` (stereo not drawn) [Compound 20, N^1-allylnorphysostigmine], at human plasma BChE, the “selectivity of inhibitory action” value was “provide BChE selectivity”.

`CNC(=O)Oc1ccc2c(c1)C1(C)CCN(C)C1N2Cc1ccccc1` (stereo not drawn) [Compound 30, N^8-benzylnorphysostigmine]: the “selectivity of inhibitory action” value at human plasma BChE was “potent and selective inhibitors of BChE”.

These data come from patent US6683105B2 (priority 1997, dated 2004).
